In patent US20260364186A1, “Chemical Conjugates, Compositions, and Methods of Preparation and Use Thereof” (Transfection Holdings Limited, priority 2022, published 2026):
Entries after “also recorded” stand apart in the source; their conditions may differ.

What was measured:
[1] = tested on: mouse embryonic fibroblasts MEF; assay: FACS uptake of BODIPY FL conjugates (Example 4); assay type: cell-based; conditions: 200 nM, 5 min
Method: FIG. 4B: Conjugate compounds coupled to BODIPY FL were tested for uptake using 200 nM each conjugate and 5 minute incubation with mouse embryonic fibroblasts MEF. Mean fluorescent intensities (MFI). 1,000 cells were sorted by FACS.
Fibroblasts are ubiquitous mesenchymal cells that are thought to play important roles in wound repair and healing, and serve as reservoirs of multipotent progenitors capable of repopulating depleted cell compartments. Primary mouse embryonic fibroblast (MEF) cultures consist of highly heterogeneous populations of distinct cell types. Singhal, P. K., et al., 2016. MEF cells have a limited growth capacity and on prolonged passaging spontaneously immortalize at a low frequency. In contrast to transformation of primary MEF cells that requires the presence of two cooperating oncogenes, immortalised MEF cells can be transformed by a single oncogene (Ras) resulting in a loss of contact inhibition, anchorage-independent growth, and tumour formation in nude mice. Studies of MEF cells have played an important role in the elucidation of the molecular mechanisms underlying cellular immortalization, transformation, and tumorigenesis. Additionally, utilization of MEF cells disrupted for specific genes has provided a powerful tool to analyse the genetic regulation of these cellular processes. Sun and Taneja, 2007. […]

Jurkat cells = assay: Time course of uptake by FACS (Example 6); assay type: cell-based, human; conditions: 200 nM
Method: FIG. 6: Time course of uptake for 124, 126, and 132 conjugate compounds. Tests were performed using 200 nM each conjugate and 5, 30 and 60 min incubation with Jurkat cells (immortalized T lymphocytes). Mean fluorescent intensities (MFI). 1,200 cells sorted by FACS. Bars represent mean±SD. Results represents a single experiment done in triplicate.
Materials and methods: Jurkat cells were diluted on RPMI media (supplemented with 10% FBS+1% penicillin-streptomycin) to 400 cells/μL. 5 μL of […] stock solutions in DMSO from 124, 126 and 132 were diluted with 1245 μL of RPMI media (supplemented with 10% FBS+1% penicillin-streptomycin) to give a 400 nM solution. 250 μL of cell suspensions were then added to each well in a 96 well plate and 250 μL of conjugate solutions (giving a 200 nM final concentration). 250 μL of media only was added to the DMSO control wells. Incubation was carried out for 5, 30 and 60 minutes at 37 °C in triplicate wells for each compound and time point.

[2] = tested on: NZM40 (NRAS Q16H) melanoma cell line; assay: Sulforhodamine B (SRB) assay of proliferation (Example 7); assay type: cell-based, human; conditions: 1 μM, 72 h
Method: FIG. 7: The 124 conjugate was tested for toxicity using 1 μM final concentration and 72 hour incubation with melanoma cell line NZM40 (NRAS Q16H mutant metastatic melanoma). Cell densities were calculated according with sulforhodamine B assay (SRB assay), absorbance at 515 nm. Cells images of DMSO control and 124 were taken at 24, 48 and 72 h through brightfield using conventional microscope. Results represents a single experiment done in a single sample.
Materials and methods: NZM40 cell line is described above. 1×10^6 NZM40 cells diluted in MEMα media were added to 2×10 cm plates and left to settle for 24 hours. After 24 hour settle period, media was removed from cells and 9900 μL fresh MEMα media added to each plate. 100 μL of DMSO were added to control plate and 100 μL [100 μM 124 in DMSO] were added to treatment plate to afford a final concentration of 1 μM 124. Cells were incubated at 37 °C and 5% 02 for 72 hours and cell images were taken every 24 hours. After 72 hour incubation, sulforhodamine B (SRB) assay was performed to compare final cell density. For this, 2.5 mL of cold 50% (w/v) TCA were added to DMSO (control) and 124 plates. Cells were incubated for 1 hour in TCA at 4 °C. […] The 96 well plate was analysed on plate reader, at wavelength of 515 nm. Results represent the absorbance of cells without dilution, 1:2 dilution, 1:4 dilution and 1:8 dilution.

[3] = tested on: melanoma tumours (NZM11 cells); assay: Whole body fluorescent cryo-imaging, tumour targeting (Example 13); assay type: in vivo, mouse; conditions: 0.7 mg/kg i.v., 1 hour post dosing
Method: Materials and methods: Compound 124 was supplied as a 10 mM stock solution in DMSO. NZM011 cells were grown in AMEM, 5% FBS, 5 μg/mL insulin, 5 μg/mL transferrin, 5 ng/mL sodium selenite at 37 °C with 5% O2, 90% N2 5% CO2. The study was performed in 6-week-old male NIH-III athymic mice (strain code 201). Work was carried out by Ichor Biosciences La Fayette NY, USA. Mice were injected on one flank with 5×10^6 NZM11 cells in a 50:50 matrigel:media suspension with a 22G needle. When tumours reach over 500 mm3 the mice were administered intravenously (tail vein) with a solution of compound 124 in phosphate buffered saline at a dose of 0.7 mg/kg. The mice were euthanized at 1 hour or 6 hours post dosing and frozen for cryoimaging. A control mouse received no tumour cells or compound 124 and was euthanized and frozen for cryoimaging at the same time as the treated mice.
Processed animals were cryoimaged imaged at BioInvision in Cleveland Ohio. Whole animal was sectioned at 40 microns and imaged using brightfield at fluorescent modes (503 nm). In-plane pixel size 10 microns. Mouse #1 with tumour on one flank at 500 mm3, treated with compound 124 (0.7 mg/kg) and euthanised 1 hour post treatment. Mouse #6 no tumour or compound 124 treatment euthanised on same day.

`CC1=CC(C)=[N+]2C1=Cc1ccc(CCCn3cc(CCNC(=O)/C=C/NC(=O)[C@H](O)C(C)(C)CO)nn3)n1[B-]2(F)F` [Compound 124] was tested, and the “uptake (fluorescent intensities)” value [1] was “highest uptake; also recorded: showed uptake”, the “incubation time to saturation point” value (Jurkat cells) was no more than 30 min and the “uptake, in words” value (Jurkat cells; 5 to 60 minutes) was “increased between 5 and 30 minutes; also recorded: selective uptake”. The “fluorescent intensity compared to 126 and 132” value (Jurkat cells; 5 minutes) was “double”, the “fluorescent intensity compared to 126 and 132” value (Jurkat cells; 30 minutes) was “six times greater” and the “times greater fluorescence than 126 and 132” value (Jurkat cells; 60 minutes) was 6 times. The effect on proliferation [2] was “comparable proliferation to DMSO control cells; also recorded: no significant difference on proliferation; also recorded: little to no effect on proliferation”, the morphology under microscope [2] was “do not exhibit significant changes on morphology” and the “124-specific fluorescence in tumour” value [3] was 124-specific fluorescence was also seen in the region of the implanted tumour and Specific 124-fluorescence was observed in the region of the tumour and specific green fluorescence from compound 124 was seen in the proximity of the tumour and specifically targeted and bound to tumour in vivo.
